Measurements published in ChEMBL document CHEMBL4152371, “A truncated RHAMM protein for discovering novel therapeutic peptides” (Bioorg Med Chem, 2018).
pKd: −log10 of the molar value. Activity calls are given as the source filed them. The calls are words filed in the database; no cut-off is given here.

Tests used:
[1] = target: T1, Hyaluronan mediated motility receptor (Homo sapiens) (UniProt O75330); test: Inhibition of C-terminal His-tagged 7 kDa RHAMM (unknown origin) binding to HA at 1 to 1000 nM after 240 secs by SPR method
T1 sequence (whole entry): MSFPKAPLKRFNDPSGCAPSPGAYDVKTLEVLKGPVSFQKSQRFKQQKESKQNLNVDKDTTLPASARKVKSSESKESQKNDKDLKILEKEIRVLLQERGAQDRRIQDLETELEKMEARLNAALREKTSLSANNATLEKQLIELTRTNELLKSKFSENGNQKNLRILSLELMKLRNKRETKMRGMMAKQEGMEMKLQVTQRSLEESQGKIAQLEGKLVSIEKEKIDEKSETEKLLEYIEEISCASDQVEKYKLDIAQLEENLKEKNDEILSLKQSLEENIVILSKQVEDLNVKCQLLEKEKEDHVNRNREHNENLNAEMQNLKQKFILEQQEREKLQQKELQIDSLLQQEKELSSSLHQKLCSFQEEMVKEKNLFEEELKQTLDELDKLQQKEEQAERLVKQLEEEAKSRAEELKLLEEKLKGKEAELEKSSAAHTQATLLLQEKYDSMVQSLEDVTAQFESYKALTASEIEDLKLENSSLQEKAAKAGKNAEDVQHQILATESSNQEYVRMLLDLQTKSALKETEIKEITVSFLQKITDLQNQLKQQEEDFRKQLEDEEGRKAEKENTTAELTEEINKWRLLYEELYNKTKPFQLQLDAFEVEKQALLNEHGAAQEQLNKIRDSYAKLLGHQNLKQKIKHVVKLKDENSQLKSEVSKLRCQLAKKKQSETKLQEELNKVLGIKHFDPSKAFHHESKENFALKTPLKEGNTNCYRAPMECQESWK

[2] = target: T2, Hyaluronan mediated motility receptor (Homo sapiens, UniProt O75330); test: Inhibition of recombinant RHAMM (unknown origin) binding to HA after 240 secs by SPR method
T2 sequence (O75330 whole entry): T1 sequence (whole entry)

[3] = target: T1, Hyaluronan mediated motility receptor (Homo sapiens); test: Inhibition of C-terminal His-tagged 7 kDa RHAMM (unknown origin) binding to HA assessed as association constant at 1000 nM after 240 secs by SPR method
[4] = target: T1, Hyaluronan mediated motility receptor (Homo sapiens); test: Inhibition of C-terminal His-tagged 7 kDa RHAMM (unknown origin) binding to HA assessed as association constant at 500 nM after 240 secs by SPR method
[5] = target: T1, Hyaluronan mediated motility receptor (Homo sapiens); test: Inhibition of C-terminal His-tagged 7 kDa RHAMM (unknown origin) binding to HA assessed as association constant at 100 nM after 240 secs by SPR method
[6] = target: T1, Hyaluronan mediated motility receptor (Homo sapiens); test: Inhibition of C-terminal His-tagged 7 kDa RHAMM (unknown origin) binding to HA assessed as association constant at 1 nM after 240 secs by SPR method
[7] = target: T2, Hyaluronan mediated motility receptor; test: Inhibition of C-terminal His-tagged 7 kDa RHAMM (unknown origin) binding to HA after 240 secs by SPR method
[8] = target: T1, Hyaluronan mediated motility receptor (Homo sapiens); test: Inhibition of C-terminal His-tagged 7 kDa RHAMM (unknown origin) binding to HA assessed as association constant at 750 nM after 240 secs by SPR method
[9] = target: T1, Hyaluronan mediated motility receptor (Homo sapiens); test: Inhibition of C-terminal His-tagged 7 kDa RHAMM (unknown origin) binding to HA assessed as association constant at 10 nM after 240 secs by SPR method

Substance	inhibition [1]	pKd [2]	K [3]	K [4]	K [5]	K [6]	pKd [7]	K [8]	K [9]
H-GEFSEAREDMAA-NH2	inactive								
H-EAFEDEEEEIDG-NH2		6.68	3.4 ×10⁴ /M.s	0.9 ×10⁴ /M.s	3.1 ×10⁴ /M.s	3.7 ×10⁴ /M.s	6.54	2.9 ×10⁴ /M.s	3.1 ×10⁴ /M.s
H-SVEAEAEEGEEY-NH2		6.48	1.3 ×10⁴ /M.s	2.3 ×10⁴ /M.s	1.4 ×10⁴ /M.s	0.02 ×10⁴ /M.s	7.50	1.9 ×10⁴ /M.s	0.16 ×10⁴ /M.s
H-GEFEEEAEEEVA-NH2		6.89	1.6 ×10⁴ /M.s	1 ×10⁴ /M.s	1.5 ×10⁴ /M.s	0.48 ×10⁴ /M.s	6.58	1.2 ×10⁴ /M.s	0.22 ×10⁴ /M.s
H-EEDFGEEAEEEA-NH2		7.49	4 ×10⁴ /M.s	3 ×10⁴ /M.s	1.4 ×10⁴ /M.s	5.7 ×10⁴ /M.s	6.70	3.3 ×10⁴ /M.s	2.3 ×10⁴ /M.s

Further lines, results first:

inhibition [1]	pKd [2]	K [3]	K [4]	K [5]	K [6]	pKd [7]	K [8]	K [9]	Substance
	7.52	2 ×10⁴ /M.s	4.9 ×10⁴ /M.s	0.1 ×10⁴ /M.s	0.8 ×10⁴ /M.s	7.68	3.5 ×10⁴ /M.s	0.5 ×10⁴ /M.s	H-FTEAESNMNDLV-NH2
	7.62	4.1 ×10⁴ /M.s	5.8 ×10⁴ /M.s	0.2 ×10⁴ /M.s	0.7 ×10⁴ /M.s	7.36	5 ×10⁴ /M.s	1.6 ×10⁴ /M.s	H-VEGEGEEEGEEY-NH2
